# Results published in patent US20260144875A1, “COMPOSITIONS AND METHODS FOR CROSSLINKING STRUCTURAL PROTEINS” (ADS Therapeutics LLC, priority 2022, published 2026).
# What was measured:
# [1] = Solubility of RTB in MCT, F6H8 or mixed solvents, HPLC; format: physicochemical; conditions: 25° C.
# Method: Solubility of riboflavin tetrabutyrate (RTB) was tested in medium chain triglycerides (MCT), F6H8, or mixtures of MCT/F6H8 at room temperature, and in F6H8 at 100° C. Solubility was analyzed as in Example 1a.
# porcine corneas = assay: Ex vivo RTB-UVA crosslinking, static stress-strain, without de-epithelialization; conditions: intact porcine eyes, corneas not de-epithelialized; RTB formulations in MCT or F6H8; UVA radiation
# Method: Starting 5 minutes before the treatment, 0.1% riboflavin tetrabutyrate (RTB) photosensitizer solution (10 mg riboflavin tetrabutyrate in 10 mL MCT or F6H8 or a combination thereof) is dropped on the treated strips and MCT or F6H8 or combination solution is dropped on the control strips at 5-minute intervals. Ultraviolet A irradiation (370 nm) is applied using 2 double UVA diodes (Roithner Lasertechnik) with an irradiance of 3 mW/cm2 at a distance of 1.0 cm from the cornea for 30 minutes. This is equal to a dose of 5.4 J/cm^2. The parameters of exposure are chosen according to the treatment procedure used in keratoconus patients. Three 1.3 V accumulators are used as a power generator. […]
# The porcine corneal strips are clamped horizontally at a distance of 8.0 mm between the jaws of a commercially available microcomputer-controlled biomaterial tester (Minimat, Rheometric Scientific GmbH. To include the physiological stress range, a prestress of 5×10^3 Pa (1 Pa=1 N/m2) is used, which requires a force of 20 mN in porcine corneas. The strain is then increased linearly with a velocity of 1.5 mm min-1, and the stress is measured up to 2×10^5 Pa. The stress-strain values are fitted by an exponential function σ=A exp (BX) using the SPSS-calculation program (SPSS GmbH Software, Munich). […]
# [2] = Stability of riboflavin tetrabutyrate in organic solvents; format: physicochemical; conditions: RTB
# Text: The stability of riboflavin tetrabutyrate (RTB) in various solvents was investigated. Using similar sample analysis methods described in Examples 1a-1c, the stability of RTB in formulations of MCT, F6H8, and combinations were monitored at various temperatures.
# [3] = Impurities from riboflavin tetrabutyrate in aqueous solution; format: physicochemical; conditions: PBS
# Method: The impurities present in PBS solutions, with or without 10% hydroxy-propyl-beta-cyclodextrin (HP-β-CD) as solubilizer, at varying pH, with riboflavin tetrabutyrate (RTB) was investigated. Using similar sample analysis methods described in Examples 1a-1c, the impurities were determined.
# [4] = Saturated aqueous solubility of RTB in PBS with or without HP-β-CD, HPLC; format: physicochemical
# Method: Solubility of riboflavin tetrabutyrate (RTB) was tested in PBS solution, with or without 10% hydroxypropyl-beta-cyclodextrin (HP-β-CD) as solubilizer, at varying pH. For each formulation, 5 mg of RTB was added to 5 mL of pH-adjusted PBS containing 10% HP-β-CD at 25° C., and mixed well. Solubility was analyzed as in Example 1a.
# [5] = Sample X1, 0.2%, MCT 100%, F6H8 0%, 2-8° C.
# [6] = Sample X2, 0.2%, MCT 100%, F6H8 0%, 25° C.
# [7] = Sample X3, 0.2%, MCT 100%, F6H8 0%, 40° C.
# [8] = Sample X4, 0.1%, MCT 70%, F6H8 30%, 2-8° C.
# [9] = Sample X5, 0.1%, MCT 70%, F6H8 30%, 25° C.
# [10] = Sample X6, 0.1%, MCT 70%, F6H8 30%, 40° C.
# [11] = Sample X7, 0.1%, MCT 50%, F6H8 50%, 2-8° C.
# [12] = Sample X8, 0.1%, MCT 50%, F6H8 50%, 25° C.
# [13] = Sample X9, 0.1%, MCT 50%, F6H8 50%, 40° C.
# [14] = Sample YA1, HP-β-CD 10%, pH 5.0
# [15] = Sample YA2, HP-β-CD 10%, pH 6.0
# [16] = Sample YA3, HP-β-CD 10%, pH 7.0
# [17] = Sample YA4, without HP-β-CD, pH 5.0
# [18] = Sample YA5, without HP-β-CD, pH 6.0
# [19] = Sample YA6, without HP-β-CD, pH 7.0
smiles,measurement,setting,value
"CCCC(=O)OC[C@@H](OC(=O)CCC)[C@@H](OC(=O)CCC)[C@H](Cn1c2nc(=O)[nH]c(=O)c-2nc2cc(C)c(C)cc21)OC(=O)CCC [RTB, (2R,3S,4S)-5-(7,8-dimethyl-2,4-dioxo-3,4-dihydrobenzo[g]pteridin-10(2H)-yl) pentane-1,2,3,4-tetrayl tetrabutyrate]",Solubility,"[1]; Sample B2, MCT 100%, F6H8 0%",3133 ng/mL
same,Solubility,"[1]; Sample B3, MCT 20%, F6H8 80%",316 ng/mL
same,Solubility,"[1]; Sample B4, MCT 50%, F6H8 50%",1124 ng/mL
same,Solubility,"[1]; Sample B5, MCT 70%, F6H8 30%",1582 ng/mL
same,"stress using strain, treated vs untreated corneas",porcine corneas,greater in the treated corneas
same,Appearance (clear/precip.) 0 hr,[2]; [5],clear
same,Conc. 0 hr,[2]; [5],"2.055, mg/mL"
same,Appearance (clear/precip.) 1 Month,[2]; [5],clear
same,Conc. 1 Month,[2]; [5],"1.832, mg/mL"
same,Appearance (clear/precip.) 14 days,[2]; [5],clear
same,Conc. 14 days,[2]; [5],"1.837, mg/mL"
same,Appearance (clear/precip.) 0 hr,[2]; [6],clear
same,Conc. 0 hr,[2]; [6],"2.055, mg/mL"
same,Appearance (clear/precip.) 1 Month,[2]; [6],clear
same,Conc. 1 Month,[2]; [6],"1.817, mg/mL"
same,Appearance (clear/precip.) 14 days,[2]; [6],clear
same,Conc. 14 days,[2]; [6],"1.888, mg/mL"
same,Appearance (clear/precip.) 0 hr,[2]; [7],clear
same,Conc. 0 hr,[2]; [7],"2.055, mg/mL"
same,Appearance (clear/precip.) 1 Month,[2]; [7],clear
same,Conc. 1 Month,[2]; [7],"1.833, mg/mL"
same,Appearance (clear/precip.) 14 days,[2]; [7],clear
same,Conc. 14 days,[2]; [7],"1.958, mg/mL"
same,Appearance (clear/precip.) 0 hr,[2]; [8],clear
same,Conc. 0 hr,[2]; [8],"1.077, mg/mL"
same,Appearance (clear/precip.) 1 Month,[2]; [8],clear
same,Conc. 1 Month,[2]; [8],"0.960, mg/mL"
same,Appearance (clear/precip.) 14 days,[2]; [8],clear
same,Conc. 14 days,[2]; [8],"1.015, mg/mL"
same,Appearance (clear/precip.) 0 hr,[2]; [9],clear
same,Conc. 0 hr,[2]; [9],"1.077, mg/mL"
same,Appearance (clear/precip.) 1 Month,[2]; [9],clear
same,Conc. 1 Month,[2]; [9],"0.953, mg/mL"
same,Appearance (clear/precip.) 14 days,[2]; [9],clear
same,Conc. 14 days,[2]; [9],"1.012, mg/mL"
same,Appearance (clear/precip.) 0 hr,[2]; [10],clear
same,Conc. 0 hr,[2]; [10],"1.077, mg/mL"
same,Appearance (clear/precip.) 1 Month,[2]; [10],clear
same,Conc. 1 Month,[2]; [10],"0.962, mg/mL"
same,Appearance (clear/precip.) 14 days,[2]; [10],clear
same,Conc. 14 days,[2]; [10],"1.027, mg/mL"
same,Appearance (clear/precip.) 0 hr,[2]; [11],clear
same,Conc. 0 hr,[2]; [11],"1.123, mg/mL"
same,Appearance (clear/precip.) 1 Month,[2]; [11],precip.
same,Conc. 1 Month,[2]; [11],"0.848, mg/mL"
same,Appearance (clear/precip.) 14 days,[2]; [11],precip.
same,Conc. 14 days,[2]; [11],"0.976, mg/mL"
same,Appearance (clear/precip.) 0 hr,[2]; [12],clear
same,Conc. 0 hr,[2]; [12],"1.123, mg/mL"
same,Appearance (clear/precip.) 1 Month,[2]; [12],clear
same,Conc. 1 Month,[2]; [12],"0.993, mg/mL"
same,Appearance (clear/precip.) 14 days,[2]; [12],clear
same,Conc. 14 days,[2]; [12],"1.056, mg/mL"
same,Appearance (clear/precip.) 0 hr,[2]; [13],clear
same,Conc. 0 hr,[2]; [13],"1.123, mg/mL"
same,Appearance (clear/precip.) 1 Month,[2]; [13],clear
same,Conc. 1 Month,[2]; [13],"0.984, mg/mL"
same,Appearance (clear/precip.) 14 days,[2]; [13],clear
same,Conc. 14 days,[2]; [13],"1.054, mg/mL"
same,Other Impurities,[3]; [14],2.94%
same,Riboflavin,[3]; [14],0%
same,Riboflavin Tetrabutyrate,[3]; [14],96.28%
same,Other Impurities,[3]; [15],10.65%
same,Riboflavin,[3]; [15],2.45%
same,Riboflavin Tetrabutyrate,[3]; [15],87.2%
same,Other Impurities,[3]; [16],9.39%
same,Riboflavin,[3]; [16],2.03%
same,Riboflavin Tetrabutyrate,[3]; [16],88.58%
same,Other Impurities,[3]; [17],22.54%
same,Riboflavin,[3]; [17],7.24%
same,Riboflavin Tetrabutyrate,[3]; [17],70.22%
same,Other Impurities,[3]; [18],20.58%
same,Riboflavin,[3]; [18],7.52%
same,Riboflavin Tetrabutyrate,[3]; [18],71.90%
same,Other Impurities,[3]; [19],19.8%
same,Riboflavin,[3]; [19],8.92%
same,Riboflavin Tetrabutyrate,[3]; [19],71.30%
same,Solubility,"[4]; Sample C1, 25° C., HP-β-CD 10%, pH 5.0",8 ng/mL
same,Solubility,"[4]; Sample C2, 25° C., HP-β-CD 10%, pH 5.5",3 ng/mL
same,Solubility,"[4]; Sample C3, 25° C., HP-β-CD 10%, pH 6.0",4 ng/mL
same,Solubility,"[4]; Sample C4, 25° C., without HP-β-CD, pH 5.0",8 ng/mL
same,Solubility,"[4]; Sample C5, 25° C., without HP-β-CD, pH 5.5",1 ng/mL
same,Solubility,"[4]; Sample C6, 25° C., without HP-β-CD, pH 6.0",2 ng/mL
